Measurements from patent US20250268931A1, “TRANSCRIPTIONAL INHIBITOR FOR IMMUNE-RELATED GENE” (The University of Tokyo, priority 2022, published 2025).

Test system: IFN-β
Assay: IFN-β concentration in culture supernatant of LPS-stimulated Raw264.7 cells (ELISA)
Assay type: cell-based
Details: PIPA 1, 3 or 10 μM 24 h, then LPS 20 ng/mL 16 h
Procedure: Raw264.7 cells, a macrophage cell line, were seeded on a 96-well plate at a cell density of 2×10^4 cells/well, and were then culture for 8 hours for adhesion. Thereafter, IRF-PIPA was added to the cultured cells to final concentrations of 1, 3, or 10 μM. After completion of the culture for 24 hours, LPS was added to the cultured cells to a final concentration of 20 ng/mL, and the obtained mixture was then cultured for 16 hours, followed by the recovery of the supernatant. The supernatant was 2-fold diluted with 1% BSA-PBS, and the IFN-β concentration was then measured by ELISA.
Raw264.7 cells, a cell line, were purchased from RIKEN Cell Bank, and were then cultured using D-MEM (Nacalai Tesque) containing 10% FBS (SIGMA-ALDRICH) and Penicillin-Streptomycin mixed solution (Nacalai Tesque).
2×10^4 Raw264.7 cells were seeded on a plate, and were then treated with IRF-PIPA 1, IRF-PIPA 2, IRF-PIPA 3 or IRF-PIPA 4 for 24 hours. Thereafter, the cells were stimulated with LPS (Lipopolysaccharide, SIGMA-ALDRICH) for 16 hours, and the culture supernatant was then recovered. The concentration of cytokine in the culture supernatant was measured using ELISA kit (R&D SYSTEMS) according to the standard protocols. The culture supernatant was diluted with 1% BSA-PBS, as necessary, and was then analyzed. 2.5×10^5 Mouse peritoneal macrophages were seeded on a plate, and were then treated with IRF-PIPA 3 for 16 or 24 hours. Thereafter, the cells were stimulated with Poly(I:C) (InvivoGen) for 16 hours or with mRNA vaccine (Moderna) for 20 to 24 hours, and the culture supernatant was then recovered. The concentration of cytokine in the culture supernatant was measured using ELISA kit (R&D SYSTEMS) according to the same standard protocols. On the other hand, the concentration of cytokine in mouse plasma was measured by administering 400 μg/mouse IRF-PIPA 3 into the abdominal cavity of wild-type mice, then administering 250 μg of Poly(I:C) into the same abdominal cavity 24 hours after the IRF-PIPA 3 administration, then collecting blood further 2 hours after the Poly(I:C) administration, and then measuring the cytokine concentration in the plasma using ELISA kit (R&D SYSTEMS) according to standard protocols.

SMILES: CC(=O)Nc1cn(C)c(C(=O)Nc2cc(C(=O)NCCC(=O)Nc3cc(C(=O)Nc4cn(C)c(C(=O)NCCCC(=O)Nc5cc(C(=O)Nc6cc(C(=O)NCCC(=O)Nc7cc(C(=O)Nc8cc(C(=O)NCCCN(C)C)n(C)c8)n(C)c7)n(C)c6)n(C)c5)n4)n(C)c3)n(C)c2)n1 [IRF-PIPA 1]
- concentration dependence of suppression of IFN-β production: concentration dependence was not observed

SMILES: CC(=O)Nc1cn(C)c(C(=O)Nc2cc(C(=O)NCCC(=O)Nc3cc(C(=O)Nc4cc(C(=O)NCCCC(=O)Nc5cn(C)c(C(=O)Nc6cc(C(=O)NCCC(=O)Nc7cc(C(=O)Nc8cc(C(=O)NCCCN(C)C)n(C)c8)n(C)c7)n(C)c6)n5)n(C)c4)n(C)c3)n(C)c2)n1 [IRF-PIPA 2]
- concentration dependence of suppression of IFN-β production: concentration dependence was not observed
